The values below are quoted from earlier work in article PMC12843750, “Integrated Biomimetic 2D-LC and Permeapad® Assay for Profiling the Transdermal Diffusion of Pharmaceutical Compounds” (Molecules, 2026).

Structures are written as SMILES.

The conditions of this series: ref Drugbank.

What is called pKa is the pH at which an ionisable group is half protonated. Turning to `CC(=O)Nc1ccc(O)cc1` [Paracetamol], the pKa is given as 9.46.
